Test results: patent US5409935A, “Xanthine derivatives for the treatment of secondary nerve cell damage and functional disorders after cranio-cerebral traumas” (Hoechst Aktiengesellschaft, priority 1991, dated 1995)

Key:
[1] = arterial circulatory disorders, known; cited from earlier work
peritoneal macrophages = test: Flow-cytometric free radical formation (oxidation of Dihydrorhodamine 123 to Rhodamine 123) in peritoneal macrophages, conA-stimulated; assay type: cell-based, white male Wistar rats; conditions: for fluorescence, conA ± Comp. 1: 50 μM compound 1, conA-stimulated; for inhibition at 50 µM: conA-stimulated, * p < 0.05
Method: Peritoneal macrophages were obtained by peritoneal washing of white male Wistar rats aged 12 weeks with 10 ml of HBS-Hanks (Serva Feinbiochemica, Heidelberg). […] All cells were stored for a period of at most 2 hours after preparation until flow-cytrometric analysis at 4° C.
The cell volume and two fluorescences were simultaneously measured in about 10,000 cells per sample using a FACScan flow cytometer (Becton Dickinson, San Jose, Calif., USA). […] The flow cytometer was calibrated with standardized yellow-green-fluorescing microspheres of 4.3 μm diameter (Polysciences, St. Goar, F.R.G.).
(§1) Each measurement is based on the individual measurements of the cells contained in a sample (about 10,000). In order to keep the experimental boundary conditions as constant as possible, several experiments were carried out successively on the same day. In such a test series, in each case four different samples of an experimental group and their control were measured by flow cytometry at variously defined points of time. As a rule, 3-4 test series were carried out per experimental group.

microglia cells = test: Flow-cytometric free radical formation (Rhodamine 123 fluorescence) in cultured microglia cells; assay type: cell-based, newborn rats; conditions: for inhibition at 50 µM: Rattus norvegicus, Microglia, * p < 0.05
Method: In order to measure the intracellular generation of oxygen free radicals in peritoneal macrophages and in cultures of activated microglia, a flow-cytometric method was used (Rothe, Oser, Valet, Naturwissenschaften, 75, 354, 1988). Specifically, the free radical formation in individual viable cells was determined by measuring the intracellular oxidation of the membrane-permeable and non-fluorescent Dihydrorhodamine 123 (DHR; Eugene, Ore., USA) to the membrane-impermeable and intracellularly "trapped", green fluorescent Rhodamine 123.
DHR was dissolved in a 43.3 mM stock solution in N,N-dimethylformamide (DMF; Merck, Darmstadt, F.R.G.). The method is also suitable for the individual and simultaneous measurement of various subpopulations within a heterogeneous cell population; it therefore allows the exclusion of contaminating populations. Moreover, in another series of tests the identification of the cell type to be measured in each case was simultaneously confirmed during the flow-cytometric measurement by specific immunocytochemical antibody staining. Peritoneal macrophages were obtained by peritoneal washing of white male Wistar rats aged 12 weeks with 10 ml of HBS-Hanks (Serva Feinbiochemica, Heidelberg). The cells were sedimented at 200 g and 20° C. for 5 min and resuspended in HBS-Hanks (4×10^6 cells/ml). All cells were stored for a period of at most 2 hours after preparation until flow-cytrometric analysis at 4° C.
Microglia cultures from the brain of newborn rats were prepared (Giulian & Baker, J. Neuroscience, 1986, 6:2163-2178). After mechanical dissociation of the tissue in Dulbecco's modified Eagle's medium (Sigma Chemie, DMEM), supplemented with 2 g/l of NaHCO3 and 20% heat-inactivated fetal calf serum, the primary cultures were kept in […] culture flasks at 3% pCO2 and 37° C. for 2 to 4 weeks. Cells which grew on the surface of a continuous cell layer were removed by shaking, pelleted and resuspended (3×10^6 cells/ml) in Hepes Hanks buffered salt solution (5 mM Hepes, 0.15M NaCl, pH 7.35; Serva Feinbiochemica, Heidelberg, F.R.G.). In order to test the effect of the compound 1, in the experimental groups the DHR-loaded cells were incubated with 50 μM of the compound according to the invention for 15, 25, 35, 45 and 60 min, to be precise with or without parallel stimulation of free radical formation by concanavalin A (conA, 100 μM/ml). No active substance was added to the respective control groups.
The cell volume and two fluorescences were simultaneously measured in about 10,000 cells per sample using a FACScan flow cytometer (Becton Dickinson, San Jose, Calif., USA). Rhodamine 123 green fluorescence (500-530 nm) and propidium iodide red fluorescence (590-700 nm) were measured with excitation by an argon laser with a wavelength of 488 nm. The flow cytometer was calibrated with standardized yellow-green-fluorescing microspheres of 4.3 μm diameter (Polysciences, St. Goar, F.R.G.).
as §1

[2] = known; cited from earlier work

## CCCn1cnc2c1c(=O)n(CCCCC(C)=O)c(=O)n2C [compound 1, 1-(5-oxohexyl)-3-methyl-7-n-propylxanthine]
[1]
  vasodilating action: vasodilating action
Peritoneal macrophages; 10 μM and 50 μM
  suppressive effect on free radical formation, dose dependence: dose-dependent
Peritoneal macrophages; 50 μM compound 1
  stimulatory effect of conA in the presence of compound 1: blocked
Peritoneal macrophages; 15 min
  fluorescence, conA ± Comp. 1: 9.0875 apparatusspecific units
Peritoneal macrophages; 25 min
  fluorescence, conA ± Comp. 1: 8.0867 apparatusspecific units
Peritoneal macrophages; 35 min
  fluorescence, conA ± Comp. 1: 25.5 apparatusspecific units
Peritoneal macrophages; 45 min
  fluorescence, conA ± Comp. 1: 31.755 apparatusspecific units
Peritoneal macrophages; 50 μM, all measurements with incubation times over 15 min
  significance of effect of compound 1: significant (p<0.05 in the t-test)
Peritoneal macrophages; Rattus norvegicus, Peritoneal macrophage, 25 min, 50 μM
  inhibition at 50 µM: 60%
Peritoneal macrophages; Rattus norvegicus, Peritoneal macrophage, 35 min, 10 μM, maximum conA activation, p<0.05 in the t-test
  inhibition at 10 µM: 21%
Peritoneal macrophages; Rattus norvegicus, Peritoneal macrophage, 35 min, 50 μM
  inhibition at 50 µM: 37%
Peritoneal macrophages; Rattus norvegicus, Peritoneal macrophage, 0.75 h, 50 μM, 45 min
  inhibition at 50 µM: 32%
Microglia cells; 50 μM
  inhibition of free radical formation: clear inhibition
Microglia cells; 50 μM, 15 min
  fluorescence, Compound 1: 2060.6 apparatusspecific units
Microglia cells; 50 μM, 25 min
  fluorescence, Compound 1: 2121.3 apparatusspecific units
Microglia cells; 50 μM, 35 min
  fluorescence, Compound 1: 1170.4 apparatusspecific units
  maximum depression of cellular Rhodamine 123 fluorescence: about one-third
Microglia cells; 50 μM, 45 min
  fluorescence, Compound 1: 1556.9 apparatusspecific units
Microglia cells; 50 μM, 60 min
  fluorescence, Compound 1: 910.4 apparatusspecific units
Microglia cells; 50 μM, incubation times of over 15 min
  significance of effect of compound 1: significant (p<0.05 in the t-test)
Microglia cells; 25 min
  inhibition at 50 µM: 19%
Microglia cells; 35 min
  inhibition at 50 µM: 27%
Microglia cells; 0.75 h, 45 min
  inhibition at 50 µM: 23%
Microglia cells; 1 h, 60 min
  inhibition at 50 µM: 27%
[2]
  toxicity: low toxicity
